Data from patent publication US10550110B2, “Tetrahydroquinoline sulfonamide derivatives as inverse agonists of retinoid-related orphan receptor gamma (ROR gamma (t))” (GALDERMA RESEARCH & DEVELOPMENT, priority 2014, dated 2020).

Experiments:
[1] = biological target: T1, ROR gamma ligand-binding domain (LBD) (hRORg) (Homo sapiens, UniProt P51449); assay: GAL4-RORγ transactivation (luciferase reporter, HG5LN HeLa line); type: cell-based; details: HG5LN HeLa line with GAL4 DBD fused to ROR gamma LBD, 18 hours incubation
T1 construct: expressed in transfected cells; host or cells: HG5LN (HeLa line with GAL4-responsive luciferase reporter)
T1 sequence (P51449 269-508 limits assumed): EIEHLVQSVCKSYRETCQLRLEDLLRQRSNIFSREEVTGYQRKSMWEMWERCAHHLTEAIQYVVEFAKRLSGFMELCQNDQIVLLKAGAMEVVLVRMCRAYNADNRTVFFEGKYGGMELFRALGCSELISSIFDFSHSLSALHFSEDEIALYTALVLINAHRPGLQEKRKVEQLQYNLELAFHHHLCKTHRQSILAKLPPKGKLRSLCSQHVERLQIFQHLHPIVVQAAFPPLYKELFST
In short: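 HeLa HG5LN cells stably carrying a GAL4-responsive luciferase reporter and GAL4 DBD–RORγ LBD fusion; seeded 4 h, then compound 18 h at 37 °C, 5% CO2. Luminescence normalized between DMSO and saturating reference-inhibitor controls as % inhibition; IC50 from 4-parameter logistic fit.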

[2] = tested on: IL-17A secretion by CD4+ cells; assay: IL-17A secretion by CD4+ cells (HTRF); type: cell-based; details: 96 h; human peripheral blood CD4+ cells activated with anti-CD3 and anti-CD28, 4 days incubation, IL-17A by HTRF; read-out: IC50 hCD4/IL17
Procedure: This model allows measurement of the effect of inhibitors on IL-17A secretion by CD4+ cells. The cells are frozen CD4+ cells (STEMCELL, #70026), isolated from peripheral human blood and activated with anti-CD3 and anti-CD28 antibodies. The amount of IL-17A secreted is measured by the TR-FRET (kit HTRF® Human Interleukin 17A (Cisbio, #64H17PEC)) technology.
The cells are rapidly thawed, resuspended in their culture medium (RPMI inactivated 10% FCS) supplemented with soluble anti-CD28 antibodies and seeded (100 000 cells/well) in 96-well plates precoated with anti-CD3 antibodies. The cells are then treated with the ranges of inhibitors to be tested (from 1000 nM to 0.05 nM, 0.1% DMSO). After 4 days of incubation, the HTRF signal is measured using a microplate reader (λexcitation=337 nm, λemission=620/665 nm). The ratios obtained (665/620) are normalized relative to the positive control (cells activated with anti-CD3 and anti-CD28, 0.1% DMSO). The IC50 values are calculated from a 4-parameter logistic model using the XLFit software (IDBS).

With `CCc1ccc(N(CC(C)C)S(=O)(=O)c2ccc3c(c2)C(O)CCN3Cc2ccnnc2)cc1` (stereo not shown) [Compound 29, 4-hydroxy-1-pyridazin-4-ylmethyl-1,2,3,4-tetrahydroquinoline-6-sulfonic acid (4-ethylphenyl)isobutylamide] the IC50 [1] was less than 100 nM and the IC50 [2] was less than 100 nM.
Work on `CCc1ccc(N(CC(C)C)S(=O)(=O)c2ccc3c(c2)C(O)CCN3C[C@H]2[C@@H]3COC[C@@H]32)cc1` (stereo partly drawn) [Compound 37, 4-hydroxy-1-[(1S,5R,6S)-1-(3-oxabicyclo[3.1.0]hex-6-yl)methyl]-1,2,3,4-tetrahydroquinoline-6-sulfonic acid (4-ethylphenyl)isobutylamide] yielded an IC50 [1] of less than 100 nM and an IC50 [2] of less than 100 nM.
Molecule `CCc1ccc(N(CC(C)C)S(=O)(=O)c2ccc3c(c2)C(O)CCN3Cc2cn[nH]c2)cc1` (stereo not shown) [Compound 45, 4-hydroxy-1-(1H-pyrazol-4-ylmethyl)-1,2,3,4-tetrahydroquinoline-6-sulfonic acid (4-ethylphenyl)isobutylamide] has an IC50 [1] of 100 to 1000 nM and an IC50 [2] of less than 100 nM.
For `CCc1ccc(N(CC(C)C)S(=O)(=O)c2ccc3c(c2)C(O)CCN3CC2CN(C(=O)OC)C2)cc1` (stereo not shown) [Compound 46, methyl ester of 3-{6-[(4-ethylphenyl)isobutylsulfamoyl]-4-hydroxy-3,4-dihydro-2H-quinolin-1-ylmethyl}azetidine-1-carboxylic acid], the IC50 [1] was 100 to 1000 nM and the IC50 [2] was 100 to 1000 nM.
Work on `Cc1cc(C)c(N(CC(C)C)S(=O)(=O)c2ccc3c(c2)C(O)CCN3CC2CCOCC2)cn1` (stereo not shown) [Compound 66, 4-hydroxy-1-(tetrahydropyran-4-ylmethyl)-1,2,3,4-tetrahydroquinoline-6-sulfonic acid (4,6-dimethylpyridin-3-yl)isobutylamide] yielded an IC50 [1] greater than 1000 nM and an IC50 [2] greater than 1000 nM.
